This note sets out measurements from patent publication US10676504B2 (Colorado State University Research Foundation, priority 2015, dated 2020).

Where two headings read alike, the source gives them in different places.

Data set [1] has as its target T1, HDAC3 (Homo sapiens, UniProt O15379).
T1 construct: The recombinant, full-length HDAC protein (BPS Biosciences) was incubated; purchased BPS Biosciences
Briefly: HDAC biochemical assay of P5-P12 (Table P1).

Data set [2] addresses T2, HDAC2 (Homo sapiens, UniProt Q92769). As to the kind of experiment: HDAC biochemical assay of P5-P12 (Table P1). Also on record: The recombinant, full-length HDAC protein (BPS Biosciences) was incubated; purchased BPS Biosciences.
Data set [3] addresses HDAC1 (Homo sapiens, UniProt Q13547). Briefly: HDAC biochemical assay of P5-P12 (Table P1). More on the design: The recombinant, full-length HDAC protein (BPS Biosciences) was incubated; purchased BPS Biosciences.
Data set [4] concerns NCI-60 cancer cell lines. Briefly: cells.
From the text: (§1) All compounds submitted for screening were initially tested at a single high dose (10^-5 M) against the fill NCI 60 cell panel. Only compounds which satisfied pre-determined threshold inhibition criteria in a minimum number of cell lines progressed to a second round of testing utilizing a more comprehensive 5-dose inhibition assay. The threshold inhibition criteria for progression to the 5-dose assays were selected to efficiently capture compounds with anti-proliferative activity based on historical DTP screening data.
(§2) Concentrations for G150, IC50, TGI, and LC50 were calculated for all cell lines tested, and heat plots were prepared.
In data set [5] the test system is renal cancer cell lines.
From the text: as §1, §2
Data set [6] concerns colon cancer cell lines. As to the kind of experiment: cells. The following applies: read-out: Average Concentration (M), LC50, Colon.
From the text: as §1, §2
Data set [7] concerns NCI-60 cancer cell lines. The following applies: five-dose.
From the text: as §1, §2
Data set [8] deals with colon cancer cell lines.
From the text: as §1, §2
Data set [9] concerns melanoma cell lines. As to the kind of experiment: cells. The following applies: read-out: Average Concentration (M), LC50, Melanoma.
From the text: as §1, §2
For data set [10], the system named is HDACs 1-3. Briefly: HDAC biochemical assay of P5-P12, summary statements.
The target in data set [11] is T2, HDAC2. Briefly: HDAC2 inhibition, trypsin-coupled kinetic fluorescence homogeneous assay (Example 10). Format: biochemical. To be noted: Conc (uM); logistic curve fit of activity versus concentration; some fits reached max iterations; read-out: X50. More on the design: The recombinant, full-length HDAC protein (BPS Biosciences) was incubated; purchased BPS Biosciences.
Method: To measure the inhibitory effect on deacetylase function in vitro, a continuous kinetic biochemical assay miniaturized to 384-well plate format was optimized.
Fluorescence measurements were obtained in real-time on a Varioskan microtiter plate reader (Thermo).
A biochemical study of HDAC2 inhibition was carried out using the trypsin-coupled, kinetic fluorescence homogeneous assay described above.

For data set [12], the target named is T3, HDAC3/NCor2 (Homo sapiens, UniProt O15379).
T3 construct: recombinant, full-length HDAC protein; purchased BPS Biosciences
T3 sequence (O15379 whole entry): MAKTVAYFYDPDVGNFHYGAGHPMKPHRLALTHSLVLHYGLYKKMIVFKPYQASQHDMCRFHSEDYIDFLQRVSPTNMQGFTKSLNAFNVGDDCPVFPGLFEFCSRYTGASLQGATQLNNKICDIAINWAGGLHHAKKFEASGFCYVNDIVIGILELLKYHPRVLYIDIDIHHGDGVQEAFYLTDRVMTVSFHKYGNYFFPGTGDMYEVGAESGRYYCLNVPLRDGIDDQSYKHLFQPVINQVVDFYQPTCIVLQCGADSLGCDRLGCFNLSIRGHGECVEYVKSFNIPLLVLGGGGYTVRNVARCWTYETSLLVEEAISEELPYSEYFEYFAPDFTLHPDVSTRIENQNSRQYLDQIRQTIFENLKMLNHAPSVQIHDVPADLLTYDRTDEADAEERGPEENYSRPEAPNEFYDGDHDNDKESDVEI
T3 sequence (Q9Y618 395-489 partner limits assumed): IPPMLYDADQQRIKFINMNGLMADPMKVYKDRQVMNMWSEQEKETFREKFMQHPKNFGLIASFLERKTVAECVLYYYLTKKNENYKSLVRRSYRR
Briefly: HDAC biochemical assay (Example 16).
Method: Thus, small-molecule inhibitors were arrayed at twelve-point dose-response (3-fold increments) in 384-well library plates and transferred by robotic pin device to replicate assay plates containing assay buffer under reducing conditions (TCEP 200 μM). A liquid handling device then transferred a tripeptide substrate terminating in acetyl-lysine and amide conjugated to 4-methyl-7-aminocoumarin (AMC), recombinant human histone deacetylase (BPS Bioscience, San Diego, Calif.), and recombinant human trypsin (Sigma-Aldrich, St. Louis, Mo.). Following deacetylase hydrolysis of acetyl-lysine, trypsin cleavage liberated the AMC fluorophore. Kinetic (fluorescence per unit time) and end-point (total fluorescence) data were captured by a multilabel plate reader. Replicate data were analyzed by curve-fit using logistic regression (Spotfire Decision-Site).

Setting [13] is: read-out: GI50 concentrations (M), order of magnitude.

T2 sequence (Q92769 whole entry): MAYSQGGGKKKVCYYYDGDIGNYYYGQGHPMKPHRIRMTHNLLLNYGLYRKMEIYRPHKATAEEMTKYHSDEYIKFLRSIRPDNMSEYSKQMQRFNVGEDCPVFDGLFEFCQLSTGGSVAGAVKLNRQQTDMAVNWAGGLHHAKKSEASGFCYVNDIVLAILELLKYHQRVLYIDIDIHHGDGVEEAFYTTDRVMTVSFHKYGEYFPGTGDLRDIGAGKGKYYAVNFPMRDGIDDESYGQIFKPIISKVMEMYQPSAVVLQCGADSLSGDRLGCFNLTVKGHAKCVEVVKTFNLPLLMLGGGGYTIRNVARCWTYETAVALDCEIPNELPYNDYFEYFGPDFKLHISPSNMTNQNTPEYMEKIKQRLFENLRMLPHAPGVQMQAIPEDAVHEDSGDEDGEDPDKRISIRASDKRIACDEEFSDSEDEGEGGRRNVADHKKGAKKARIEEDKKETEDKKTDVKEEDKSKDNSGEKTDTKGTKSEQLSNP
T1 sequence (O15379 whole entry): as the sequence (O15379 whole entry) above
T1 sequence (Q9Y618 395-489 partner limits assumed): as the sequence (Q9Y618 395-489 partner limits assumed) above
Sequence of HDAC1 (Q13547 whole entry): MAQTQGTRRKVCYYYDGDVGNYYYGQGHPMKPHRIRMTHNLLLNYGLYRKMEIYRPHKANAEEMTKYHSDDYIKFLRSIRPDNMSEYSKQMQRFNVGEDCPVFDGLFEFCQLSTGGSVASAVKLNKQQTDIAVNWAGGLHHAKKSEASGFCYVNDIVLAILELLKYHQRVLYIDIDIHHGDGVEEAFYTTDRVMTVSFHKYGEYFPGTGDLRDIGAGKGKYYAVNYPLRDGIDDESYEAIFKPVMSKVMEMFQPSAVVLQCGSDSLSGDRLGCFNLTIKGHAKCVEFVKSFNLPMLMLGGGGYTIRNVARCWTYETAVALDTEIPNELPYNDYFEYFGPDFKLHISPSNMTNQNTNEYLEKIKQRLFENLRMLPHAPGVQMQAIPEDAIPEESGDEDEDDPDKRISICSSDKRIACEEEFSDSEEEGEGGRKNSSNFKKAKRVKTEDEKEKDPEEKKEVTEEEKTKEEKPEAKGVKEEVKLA

Where the note is “from CC(C)[C@H](NC(=O)[C@]1(C)CSC(c2coc(CNC(=O)OC(C)(C)C)n2)=N1)C(=O)O[C@H](/C=C/CCSC(c1ccccc1)(c1ccccc1)c1ccccc1)CC(=O)OCC[Si](C)(C)C, amide bond, T3P, DCM, 0.99 mM, 2 steps”, `CC(C)[C@@H]1NC(=O)[C@]2(C)CSC(=N2)c2coc(n2)CNC(=O)C[C@@H](/C=C/CCSC(c2ccccc2)(c2ccccc2)c2ccccc2)OC1=O` came in with a ring closure, yield of all isomers of 35%.

`CCCCCCCC(=O)SCC/C=C/[C@@H]1CC(=O)NCc2nc(cs2)C2=N[C@@](C)(CS2)C(=O)N[C@@H](C(C)C)C(=O)N1` [Largazole peptide isostere]: the IC50 in [1] was 1150 nM; in data set [2], 825 nM; in data set [3] it was 544 nM.

For the compound `CCCCCCCC(=O)SCC/C=C/[C@@H]1CC(=O)NCc2cccc(n2)C2=N[C@@](C)(CS2)C(=O)N[C@@H](C(C)C)C(=O)O1` [drawing 79], the GI50 in [4] (setting [13]) came out at 1e-08 M.

Regarding `CC(C)[C@@H]1NC(=O)[C@]2(C)CSC(=N2)c2cccc(n2)CNC(=O)C[C@@H](/C=C/CCSC(c2ccccc2)(c2ccccc2)c2ccccc2)NC1=O`, the ring closure, yield of all isomers (from COC(=O)C[C@@H](/C=C/CCSC(c1ccccc1)(c1ccccc1)c1ccccc1)NC(=O)[C@@H](NC(=O)[C@]1(C)CSC(c2cccc(CNC(=O)OC(C)(C)C)n2)=N1)C(C)C, amide bond, HATU/HOBt/DIPEA, acetonitrile, 0.97 mM, 3 steps) was found to be 33%.

For the compound `CC(C)[C@@H]1NC(=O)[C@]2(C)CSC(=N2)c2csc(n2)CNC(=O)C[C@@H](/C=C/CCSC(c2ccccc2)(c2ccccc2)c2ccccc2)NC1=O`, the ring closure, yield of all isomers (from COC(=O)C[C@@H](/C=C/CCSC(c1ccccc1)(c1ccccc1)c1ccccc1)NC(=O)[C@@H](NC(=O)[C@]1(C)CSC(c2csc(CNC(=O)OC(C)(C)C)n2)=N1)C(C)C, amide bond, HATU/iPr2NEt, MeCN, 0.96 mM, 3 steps) amounted to 50%.

For `CCCCCCCC(=O)SCC/C=C/[C@@H]1CC(=O)NCc2cccc(n2)C2=N[C@@](C)(CS2)C(=O)N[C@@H](C(C)C)C(=O)O1` [compound of formula bb], the GI50 in data set [4] (read-out: Average Concentration (M), GI50) worked out at 7.62e-08 M. Besides, the “Total Impacted Cell Lines (n), LC50, Renal” value in data set [5] is given as 2. Also, in [5] (five-dose), the “Percent of Cell Lines Impacted (%), LC50, Renal” value was found to be 25%. In [6], the CC50 came out at 1.29e-05 M. The “Percent of Cell Lines Impacted (%), GI50” value in data set [7] (50% Growth Inhibition) amounted to 100%. Besides, the “Percent of Cell Lines Impacted (%), LC50” value in data set [7] (50% Lethal Concentration reached) was 12%. Moreover, in data set [7] (Total Growth Inhibition), the “Percent of Cell Lines Impacted (%), TGI” value was found to be 47% and the “Total Impacted Cell Lines (n), TGI” value is reported as 27. In [8], the “Total Impacted Cell Lines (n), LC50, Colon” value was determined as 2. Further, the “Percent of Cell Lines Impacted (%), LC50, Colon” value in data set [8] (five-dose) stood at 29%. Besides, the CC50 in data set [9] was found to be 7.01e-07 M.

On to `CCCCCCCC(=O)SCCC=CC1CC(=O)NCc2cc(ccn2)C2=NC(C)(CS2)C(=O)NC(C(C)C)C(=O)O1` (centres unmarked) [Compound P7, Depsipeptide Pyridyl “OUT”], for which the IC50 is 320 nM in data set [1] (Table P1), 655 nM in data set [2] (Table P1) and 340 nM in [3] (Table P1).

For `CCCCCCCC(=O)SCC/C=C/[C@@H]1CC(=O)NCc2cc(ccn2)C2=N[C@@](C)(CS2)C(=O)N[C@@H](C(C)C)C(=O)N1` [Compound P11, Peptide Isostere Pyridyl “OUT”], the IC50 in data set [1] (Table P1) was 846 nM; in data set [2] (Table P1), 1240 nM; in [3] (Table P1), 817 nM. The “IC50 range in words for HDACs 1-3” value in [10] is “high nM-μM range”.

For the setting “from CC(C)[C@H](NC(=O)[C@]1(C)CSC(c2cccc(CNC(=O)OC(C)(C)C)n2)=N1)C(=O)O[C@H](/C=C/CCSC(c1ccccc1)(c1ccccc1)c1ccccc1)CC(=O)OCC[Si](C)(C)C, amide bond, HATU, acetonitrile, 0.96 mM, 18.0 h, 2 steps”, `CC(C)[C@@H]1NC(=O)[C@]2(C)CSC(=N2)c2cccc(n2)CNC(=O)C[C@@H](/C=C/CCSC(c2ccccc2)(c2ccccc2)c2ccccc2)OC1=O` gave a ring closure, yield of all isomers of 20%.

As for `CCCCCCCC(=O)SCCC=CC1CC(=O)NCc2cccc(n2)C2=NC(C)(CS2)C(=O)NC(C(C)C)C(=O)N1` (centres unmarked) [Compound P9, Peptide Isostere Pyridyl “IN”], the IC50 came out at 332 nM in data set [1] (Table P1), 472 nM in data set [2] (Table P1) and 340 nM in data set [3] (Table P1).

With `CC(C)[C@@H]1NC(=O)[C@]2(C)CSC(=N2)c2cccc(n2)CNC(=O)C[C@@H](/C=C/CCS)NC1=O` [Compound P10, Peptide Isostere Pyridyl “IN” Thiol], the IC50 came to 42.5 nM in data set [1] (Table P1), 69.8 nM in [2] (Table P1) and 42 nM in data set [3] (Table P1). Also, the “IC50 range in words for HDACs 1-3” value in [10] is listed as “double-digit nM range”.

`CC(C)[C@@H]1NC(=O)[C@@]2(C)CSC(=N2)c2csc(n2)CNC(=O)C[C@H](/C=C/CCSC(c2ccccc2)(c2ccccc2)c2ccccc2)OC1=O`: the ring closure, yield of all isomers (from CC(C)[C@H](NC(=O)[C@@]1(C)CSC(c2csc(CNC(=O)OC(C)(C)C)n2)=N1)C(=O)O[C@@H](/C=C/CCSC(c1ccccc1)(c1ccccc1)c1ccccc1)CC(=O)OCC[Si](C)(C)C, amide bond, 2 steps) was found to be 87%.

With `CCCCCCCC(=O)SCC/C=C/[C@@H]1CC(=O)NCc2nc(cs2)C2=N[C@@](C)(CS2)C(=O)N[C@@H](C(C)C)C(=O)N1` [drawing 78], the GI50 in data set [4] (setting [13]) was determined as 1e-07 M.

Turning to `CC(C)[C@@H]1NC(=O)[C@]2(C)CSC(=N2)c2csc(n2)CNC(=O)C[C@@H](/C=C/CCCCS)OC1=O` [ab6_162alr1 n + 2 thiol], the IC50 in data set [11] worked out at 0.0785 µM.

For the compound `CC(C)[C@@H]1NC(=O)[C@]2(C)CSC(=N2)c2ccnc(c2)CNC(=O)C[C@@H](/C=C/CCSC(c2ccccc2)(c2ccccc2)c2ccccc2)OC1=O`, the ring closure, yield of all isomers (from CC(C)[C@H](NC(=O)[C@]1(C)CSC(c2ccnc(CNC(=O)OC(C)(C)C)c2)=N1)C(=O)O[C@H](/C=C/CCSC(c1ccccc1)(c1ccccc1)c1ccccc1)CC(=O)OCC[Si](C)(C)C, amide bond, HATU/HOBt/DIPEA, acetonitrile, 1.0 mM, 18.0 h, 2 steps) turned out to be 23%.

`C[C@@]12CSC(=N1)c1csc(n1)CNC(=O)C[C@@H](/C=C/CCSC(c1ccccc1)(c1ccccc1)c1ccccc1)OC(=O)[C@@H]1CCCN1C2=O` showed a ring closure, yield of all isomers (from CC(C)(C)OC(=O)NCc1nc(C2=N[C@](C)(C(=O)N3CCC[C@H]3C(=O)O[C@H](/C=C/CCSC(c3ccccc3)(c3ccccc3)c3ccccc3)CC(=O)OCC[Si](C)(C)C)CS2)cs1, amide bond, HATU/iPr2NEt, MeCN, 0.83 mM, 2 steps) of 43%.

`CC(C)[C@@H]1NC(=O)[C@]2(C)CSC(=N2)c2csc(n2)CNC(=O)C[C@@H](/C=C/CCCC(=O)Nc2ccccc2N)OC1=O` [Benzamide (12b)] came in with an IC50 in data set [12] of 14 µM.

For `CC(=O)N[C@@H](CC(C)C)C(=O)N[C@@H](CC(C)C)C(=O)N[C@H](C=O)CCCNC(=N)N` [Leupeptin, reference compound], the IC50 in data set [11] stood at 0.308 µM.

In the case of `CCCCCCCC(=O)SCCC=CC1CC(=O)NCc2cccc(n2)C2=NC(C)(CS2)C(=O)NC(C(C)C)C(=O)O1` (centres unmarked) [Compound P5, Depsipeptide Pyridyl “IN”], the IC50 was found to be 332 nM in data set [1] (Table P1), 350 nM in data set [2] (Table P1) and 204 nM in data set [3] (Table P1).

As to `CC(C)[C@@H]1NC(=O)[C@]2(C)CSC(=N2)c2ccnc(c2)CNC(=O)C[C@@H](/C=C/CCSC(c2ccccc2)(c2ccccc2)c2ccccc2)NC1=O`, where the note is “from COC(=O)C[C@@H](/C=C/CCSC(c1ccccc1)(c1ccccc1)c1ccccc1)NC(=O)[C@@H](NC(=O)[C@]1(C)CSC(c2ccnc(CNC(=O)OC(C)(C)C)c2)=N1)C(C)C, amide bond, HATU/HOBt/DIPEA, acetonitrile, 0.97 mM, 3 steps”, the ring closure, yield of all isomers worked out at 32%.
